Test results published in patent US10238670B2, “9-aminomethyl minocycline compounds and methods of use thereof in urinary tract infection (UTI) treatment” (Paratek Pharmaceuticals, Inc., priority 2016, dated 2019).

Assay: Phase 1b study in female adults with cystitis, urine PK
Format: in vivo, human
Conditions: urine
Protocol: Urine was collected, the volume recorded, and analyzed for Compound 1 concentration at the following times: • Day 1 to 2: pooled total urine 0 to 4, 4 to 8, 8 to 12, and 12-24 hours after the t=0 h dose; Collection of the 12 to 24 h sample should be completed prior to the t=24 h dose on Day 2; • Day 5 to 6: pooled total urine 0 to 4, 4 to 8, 8 to 12, and 12-24 hours after the t=96 h dose;
Urine was pooled during the intervals above. At the end of each interval, the time and total volume were recorded.
Compound 1 urine concentration data was used to determine the amount excreted in a dosing interval, the urinary excretion rate, and, in conjunction with the plasma concentration data, to estimate the renal clearance (CLr) of Compound 1.
Urine was collected and the volume recorded at the following times: • Day 1 to 2: pooled total urine 0 to 4, 4 to 8, 8 to 12, and 12-24 hours after the t=0 h dose; • Day 5 to 6: pooled total urine 0 to 4, 4 to 8, 8 to 12, and 12-24 hours after the t=96 h dose;
At the end of each collection time period the pooled urine was frozen at −20° C. or colder and the total volume of urine collected for the time period was recorded. The samples were kept frozen at −20° C. or colder pending shipment to the bioanalytical laboratory.
The urine sample volume, its Compound 1 concentration, the amount of Compound 1 excreted in the urine (product of volume and concentration) over a dosing interval, the urinary excretion rates and renal clearance (CLr) of Compound 1 following the initial Day 1 and final Day 5 doses were summarized by the treatment groups.

CN(C)c1cc(CNCC(C)(C)C)c(O)c2c1C[C@H]1C[C@H]3[C@H](N(C)C)C(O)=C(C(N)=O)C(=O)[C@@]3(O)C(O)=C1C2=O [Compound 1, 9-[(2,2-dimethyl-propylamino)-methyl]-minocycline]
Ae 12-24 hrs, Mean (Day 1, IV_PO300): 14.00 mg | Ae 12-24 hrs, Median (Day 1, IV_PO300): 12.32 mg | Fe 0-24 hrs, Geo. Mean (Day 1, IV_PO300): 18.49% | Fe 0-24 hrs, Mean (Day 1, IV_PO300): 20.35% | Fe 0-24 hrs, Median (Day 1, IV_PO300): 20.70% | Ae 0-4 hrs, Geo. Mean (Day 1, PO300): 5.90 mg | Ae 0-4 hrs, Mean (Day 1, PO300): 6.41 mg | Ae 0-4 hrs, Median (Day 1, PO300): 6.58 mg | Ae 0-24 hrs, Geo. Mean (Day 1, PO300): 36.94 mg | Ae 0-24 hrs, Median (Day 1, PO300): 39.07 mg | Ae 4-8 hrs, Geo. Mean (Day 1, PO300): 6.42 mg | Ae 4-8 hrs, Mean (Day 1, PO300): 7.60 mg | Ae 4-8 hrs, Median (Day 1, PO300): 6.28 mg | Ae 8-12 hrs, Geo. Mean (Day 1, PO300): 7.22 mg | Ae 8-12 hrs, Mean (Day 1, PO300): 9.17 mg | Ae 8-12 hrs, Median (Day 1, PO300): 6.86 mg | Ae 12-24 hrs, Geo. Mean (Day 1, PO300): 14.19 mg | Ae 12-24 hrs, Mean (Day 1, PO300): 16.82 mg | Ae 12-24 hrs, Median (Day 1, PO300): 16.30 mg | Fe 0-24 hrs, Geo. Mean (Day 1, PO300): 6.16% | Fe 0-24 hrs, Mean (Day 1, PO300): 6.54% | Fe 0-24 hrs, Median (Day 1, PO300): 6.51% | Ae 0-4 hrs, Geo. Mean (Day 1, PO450): 3.96 mg | Ae 0-4 hrs, Mean (Day 1, PO450): 7.27 mg | Ae 0-4 hrs, Median (Day 1, PO450): 5.05 mg | Ae 0-24 hrs, Geo. Mean (Day 1, PO450): 34.07 mg | Ae 0-24 hrs, Median (Day 1, PO450): 37.30 mg | Ae 4-8 hrs, Geo. Mean (Day 1, PO450): 6.00 mg | Ae 4-8 hrs, Mean (Day 1, PO450): 7.11 mg | Ae 4-8 hrs, Median (Day 1, PO450): 6.16 mg | Ae 8-12 hrs, Geo. Mean (Day 1, PO450): 4.75 mg | Ae 8-12 hrs, Mean (Day 1, PO450): 5.36 mg | Ae 8-12 hrs, Median (Day 1, PO450): 5.27 mg | Ae 12-24 hrs, Geo. Mean (Day 1, PO450): 14.57 mg | Ae 12-24 hrs, Mean (Day 1, PO450): 16.92 mg | Ae 12-24 hrs, Median (Day 1, PO450): 15.98 mg | Fe 0-24 hrs, Geo. Mean (Day 1, PO450): 3.79% | Fe 0-24 hrs, Mean (Day 1, PO450): 3.99% | Fe 0-24 hrs, Median (Day 1, PO450): 4.14% | Ae 0-4 hrs, Geo. Mean (Day 5, IV_PO300): 3.89 mg | Ae 0-4 hrs, Mean (Day 5, IV_PO300): 7.74 mg | Ae 0-4 hrs, Median (Day 5, IV_PO300): 4.99 mg | Ae 0-24 hrs, Geo. Mean (Day 5, IV_PO300): 21.72 mg | Ae 0-24 hrs, Median (Day 5, IV_PO300): 31.29 mg | Ae 4-8 hrs, Geo. Mean (Day 5, IV_PO300): 5.22 mg | Ae 4-8 hrs, Mean (Day 5, IV_PO300): 8.38 mg | Ae 4-8 hrs, Median (Day 5, IV_PO300): 7.13 mg | Ae 8-12 hrs, Geo. Mean (Day 5, IV_PO300): 3.94 mg | Ae 8-12 hrs, Mean (Day 5, IV_PO300): 6.28 mg | Ae 8-12 hrs, Median (Day 5, IV_PO300): 6.47 mg | Ae 12-24 hrs, Geo. Mean (Day 5, IV_PO300): 7.31 mg | Ae 12-24 hrs, Mean (Day 5, IV_PO300): 10.71 mg | Ae 12-24 hrs, Median (Day 5, IV_PO300): 11.25 mg | Fe 0-24 hrs, Geo. Mean (Day 5, IV_PO300): 7.24% | Fe 0-24 hrs, Mean (Day 5, IV_PO300): 10.76% | Fe 0-24 hrs, Median (Day 5, IV_PO300): 10.43% | Ae 0-4 hrs, Geo. Mean (Day 5, PO300): 7.20 mg | Ae 0-4 hrs, Mean (Day 5, PO300): 10.02 mg | Ae 0-4 hrs, Median (Day 5, PO300): 9.35 mg | Ae 0-24 hrs, Geo. Mean (Day 5, PO300): 31.46 mg | Ae 0-24 hrs, Median (Day 5, PO300): 34.96 mg | Ae 4-8 hrs, Geo. Mean (Day 5, PO300): 9.17 mg | Ae 4-8 hrs, Mean (Day 5, PO300): 10.54 mg | Ae 4-8 hrs, Median (Day 5, PO300): 8.05 mg | Ae 8-12 hrs, Geo. Mean (Day 5, PO300): 5.02 mg | Ae 8-12 hrs, Mean (Day 5, PO300): 6.74 mg | Ae 8-12 hrs, Median (Day 5, PO300): 7.29 mg | Ae 12-24 hrs, Geo. Mean (Day 5, PO300): 10.71 mg | Ae 12-24 hrs, Mean (Day 5, PO300): 11.95 mg | Ae 12-24 hrs, Median (Day 5, PO300): 11.38 mg | Fe 0-24 hrs, Geo. Mean (Day 5, PO300): 10.49% | Fe 0-24 hrs, Mean (Day 5, PO300): 12.74% | Fe 0-24 hrs, Median (Day 5, PO300): 11.65% | Ae 0-4 hrs, Geo. Mean (Day 5, PO450): 9.50 mg | Ae 0-4 hrs, Mean (Day 5, PO450): 12.07 mg | Ae 0-4 hrs, Median (Day 5, PO450): 11.76 mg | Ae 0-24 hrs, Geo. Mean (Day 5, PO450): 43.60 mg | Ae 0-24 hrs, Median (Day 5, PO450): 50.26 mg | Ae 4-8 hrs, Geo. Mean (Day 5, PO450): 11.02 mg | Ae 4-8 hrs, Mean (Day 5, PO450): 19.74 mg | Ae 4-8 hrs, Median (Day 5, PO450): 10.30 mg | Ae 8-12 hrs, Geo. Mean (Day 5, PO450): 6.01 mg | Ae 8-12 hrs, Mean (Day 5, PO450): 7.54 mg | Ae 8-12 hrs, Median (Day 5, PO450): 5.62 mg | Ae 12-24 hrs, Geo. Mean (Day 5, PO450): 15.26 mg | Ae 12-24 hrs, Mean (Day 5, PO450): 18.59 mg | Ae 12-24 hrs, Median (Day 5, PO450): 20.23 mg | Fe 0-24 hrs, Geo. Mean (Day 5, PO450): 9.69% | Fe 0-24 hrs, Mean (Day 5, PO450): 12.19% | Fe 0-24 hrs, Median (Day 5, PO450): 11.17%
